Assay results published in the CheMixHub ionic liquid set.

Assay: xn = mol fraction of the nth substance listed

CCCC[n+]1ccn(C)c1.CS(=O)(=O)[O-] + CCCC[n+]1ccn(C)c1.[Cl-]
Conditions | viscosity [mPa·s]
353.15 K, 102 kPa, x1 = 0.2 | 98

CCCCn1cc[n+](C)c1C.O=S(=O)([N-]S(=O)(=O)C(F)(F)F)C(F)(F)F + CCCC[n+]1ccn(C)c1C.F[B-](F)(F)F
Conditions | electrical conductivity [S/m]
358.15 K, 100 kPa, x1 = 1 | 1.71

CS(=O)(=O)[O-].C[N+](C)(CCO)CCO + CCCO
viscosity [mPa·s], 101 kPa
Conditions | x1 = 0.0999 | x1 = 0.1996 | x1 = 0.2999 | x1 = 0.3987 | x1 = 0.498 | x1 = 0.5975 | x1 = 0.6972 | x1 = 0.7982 | x1 = 0.8978 | x1 = 1
298.15 K | 4.97 | 11.64 | 25.5 | 50.9 | 97.5 | 196 | 337 | 576 | 960 | 1495
303.15 K | 4.34 | 9.88 | 20.9 | 40.6 | 75.5 | 149 | 248 | 414 | 676 | 1021
308.15 K | 3.8 | 8.45 | 17.4 | 32.9 | 59.6 | 114.8 | 187 | 304 | 484 | 716
313.15 K | 3.36 | 7.29 | 14.66 | 27 | 47.7 | 79.8 | 142.8 | 228 | 355 | 513
318.15 K | 2.98 | 6.35 | 12.49 | 22.5 | 38.8 | 63.7 | 111.4 | 174 | 267 | 378
323.15 K | 2.66 | 5.56 | 10.92 | 18.9 | 32 | 51.5 | 79.8 | 135.8 | 203 | 282

COP(=O)([O-])OC.C[N+]1(CCO)CCCC1 + CCO
100 kPa
Conditions | viscosity [mPa·s]
293.15 K, x1 = 0.1077 | 4.74
293.15 K, x1 = 0.2079 | 12.31
293.15 K, x1 = 0.3084 | 32
293.15 K, x1 = 0.4033 | 55.9
293.15 K, x1 = 0.5077 | 123
293.15 K, x1 = 0.7053 | 402
298.15 K, x1 = 0.7053 | 295
298.15 K, x1 = 0.8055 | 478
303.15 K, x1 = 0.0561 | 2.02
303.15 K, x1 = 0.2079 | 9.66
303.15 K, x1 = 0.3084 | 23.7
303.15 K, x1 = 0.5077 | 78.2
308.15 K, x1 = 0.0561 | 1.73
308.15 K, x1 = 0.1077 | 3.54
308.15 K, x1 = 0.1523 | 5.76
308.15 K, x1 = 0.3084 | 21.1
313.15 K, x1 = 0.9053 | 277
318.15 K, x1 = 0.2079 | 7.02
318.15 K, x1 = 0.2537 | 10.45
318.15 K, x1 = 0.4033 | 26.5
318.15 K, x1 = 0.5077 | 44.7
318.15 K, x1 = 1 | 273
323.15 K, x1 = 0.5077 | 38.1
323.15 K, x1 = 0.6042 | 60
328.15 K, x1 = 0.2079 | 5.83
328.15 K, x1 = 0.3084 | 12.98
328.15 K, x1 = 0.6042 | 50.4
333.15 K, x1 = 0.4033 | 17.9
333.15 K, x1 = 0.7053 | 54.1
338.15 K, x1 = 0.4033 | 16.24
338.15 K, x1 = 0.5077 | 23.8
338.15 K, x1 = 0.6042 | 35.9
338.15 K, x1 = 0.8055 | 60.9
